Several values for one entry are separate records, joined by “and”; a condition that tells them apart may be missing. Equal entries are not always repeated. Toxic doses and inconclusive results are not listed. How the source made its calls: active means survival T/C of 150% or more; inactive means T/C below 125% in these data.
Test system: CD2F1 mice, L1210 leukemia ip, survival T/C
Experiment: NCI In Vivo Anticancer Drug Screen. Data for tumor model L1210 Leukemia (intraperitoneal) in CD2F1 (CDF1) mice
Conditions: higher = longer survival
Procedure, shortened: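 Activity against a transplanted murine tumor was judged by comparing the compound group with a vehicle group. The outcome in the treated animals was divided by that in the controls.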

[1] = endpoint: mean survival time, dose: 100.0 mg/kg/injection, schedule: Q04DX002 (ip), vehicle: other
[2] = endpoint: mean survival time, dose: 200.0 mg/kg/injection, schedule: Q04DX002 (ip), vehicle: other
[3] = endpoint: mean survival time, dose: 400.0 mg/kg/injection, schedule: Q04DX002 (ip), vehicle: other
[4] = endpoint: mean survival time, dose: 200.0 mg/kg/injection, schedule: Q04DX002 (ip), vehicle: saline with Tween-80
[5] = endpoint: mean survival time, dose: 400.0 mg/kg/injection, schedule: Q04DX002 (ip), vehicle: saline with Tween-80
[6] = endpoint: mean survival time, dose: 100.0 mg/kg/injection, schedule: Q04DX002 (ip), vehicle: saline with Tween-80
[7] = endpoint: mean survival time, dose: 100.0 mg/kg/injection, schedule: Q01DX009 (ip), vehicle: saline with Tween-80
[8] = endpoint: mean survival time, dose: 100.0 mg/kg/injection, schedule: Q04DX003 (ip), vehicle: saline with Tween-80
[9] = endpoint: mean survival time, dose: 200.0 mg/kg/injection, schedule: Q04DX003 (ip), vehicle: saline with Tween-80
[10] = endpoint: mean survival time, dose: 400.0 mg/kg/injection, schedule: Q04DX003 (ip), vehicle: saline with Tween-80
[11] = endpoint: mean survival time, dose: 100.0 mg/kg/injection, schedule: Q01DX001 (ip), vehicle: saline with Tween-80
[12] = endpoint: mean survival time, dose: 200.0 mg/kg/injection, schedule: Q01DX001 (ip), vehicle: saline with Tween-80
[13] = endpoint: mean survival time, dose: 400.0 mg/kg/injection, schedule: Q01DX001 (ip), vehicle: saline with Tween-80
[14] = endpoint: mean survival time, dose: 200.0 mg/kg/injection, schedule: Q01DX009 (ip), vehicle: saline with Tween-80
[15] = endpoint: mean survival time, dose: 400.0 mg/kg/injection, schedule: Q01DX009 (ip), vehicle: saline with Tween-80

Measured: T/C

O=C(C1CC1c1ccccc1)N1CCC(Nc2ccccc2)CC1 (configuration not stated)
inactive: [1] 102 % of control | [2] 94 % of control | [3] 90 % of control

COC(=O)C1C2CCc3cc(OC)ccc3C2CC(=O)C1(C)C(=O)OC (configuration not stated)
inactive: endpoint: mean survival time, dose: 100.0 mg/kg/injection, schedule: Q04DX003 (sc), vehicle: steriod suspending solution 103 % of control | endpoint: mean survival time, dose: 200.0 mg/kg/injection, schedule: Q04DX003 (sc), vehicle: steriod suspending solution 95 % of control | endpoint: mean survival time, dose: 400.0 mg/kg/injection, schedule: Q04DX003 (sc), vehicle: steriod suspending solution 104 % of control

COc1ccc(NC(=O)Nc2ccc(Cl)cc2OC)cc1
inactive: [4] 93 % of control | [5] 90 % of control

CC1(Br)OC(=O)CC1Br (configuration not stated)
inactive: [6] 106 % of control | [4] 91 % of control

O=c1[nH]c(=O)c2n[nH]nc2[nH]1
inactive: endpoint: mean survival time, dose: 23.0 mg/kg/injection, schedule: Q01DX009 (ip), vehicle: saline 104 % of control | endpoint: mean survival time, dose: 35.0 mg/kg/injection, schedule: Q01DX009 (ip), vehicle: saline 101 % of control | endpoint: mean survival time, dose: 50.0 mg/kg/injection, schedule: Q01DX009 (ip), vehicle: saline 98 % of control

O=C(c1cccnc1)n1cc2c(n1)C1=C(CCCC1)CC2
inactive: endpoint: mean survival time, dose: 50.0 mg/kg/injection, schedule: Q01DX009 (ip), vehicle: Klucel (hydroxypropylcellulose) (HPC) 90 % of control | endpoint: mean survival time, dose: 100.0 mg/kg/injection, schedule: Q01DX009 (ip), vehicle: Klucel (hydroxypropylcellulose) (HPC) 105 % of control | endpoint: mean survival time, dose: 200.0 mg/kg/injection, schedule: Q01DX009 (ip), vehicle: Klucel (hydroxypropylcellulose) (HPC) 102 % of control

O=c1n(C2OC(CO)C(O)C2O)ccc2nnnn12 (configuration not stated)
inactive: endpoint: mean survival time, dose: 12.5 mg/kg/injection, schedule: Q01DX005 (ip), vehicle: distilled water + Tween-80 100 % of control | endpoint: mean survival time, dose: 25.0 mg/kg/injection, schedule: Q01DX005 (ip), vehicle: distilled water + Tween-80 96 % of control | endpoint: mean survival time, dose: 50.0 mg/kg/injection, schedule: Q01DX005 (ip), vehicle: distilled water + Tween-80 100 % of control | endpoint: mean survival time, dose: 100.0 mg/kg/injection, schedule: Q01DX005 (ip), vehicle: distilled water + Tween-80 96 % of control | endpoint: mean survival time, dose: 200.0 mg/kg/injection, schedule: Q01DX005 (ip), vehicle: distilled water + Tween-80 102 % of control

CCC(=O)c1ccc(O)c(O)c1
inactive: endpoint: mean survival time, dose: 25.0 mg/kg/injection, schedule: Q01DX009 (ip), vehicle: saline with Tween-80 95 % of control | endpoint: mean survival time, dose: 50.0 mg/kg/injection, schedule: Q01DX009 (ip), vehicle: saline with Tween-80 96 % of control | [7] 96 % of control and 100 % of control | endpoint: mean survival time, dose: 100.0 mg/kg/injection, schedule: Q04DX003 (ip), vehicle: saline 96 % of control | endpoint: mean survival time, dose: 200.0 mg/kg/injection, schedule: Q04DX003 (ip), vehicle: saline 105 % of control | endpoint: mean survival time, dose: 400.0 mg/kg/injection, schedule: Q04DX003 (ip), vehicle: saline 92 % of control

O=S(=O)(NC1CCc2ccccc21)c1ccccc1 (configuration not stated)
inactive: [8] 98 % of control | [9] 97 % of control | [10] 98 % of control

CC1CC2(C)C(CC1=O)CC(C)C1C2CCC2(C)C1CCC2(C)O (configuration not stated)
inactive: [8] 102 % of control | [9] 102 % of control | [10] 100 % of control

CCOc1ccc(Nc2cc(=O)[nH]c(=O)[nH]2)cc1
inactive: [11] 95 % of control | [12] 93 % of control | [13] 95 % of control

O=C(O)Cc1cc(O)c(CC(=O)O)cc1O
inactive: [6] 95 % of control | [4] 95 % of control | [5] 91 % of control

O=C1CCN2CCc3c([nH]c4ccccc34)C2C1 (configuration not stated)
inactive: [8] 101 % of control | [9] 101 % of control | [10] 109 % of control

C[n+]1ccccc1
inactive: endpoint: mean survival time, dose: 100.0 mg/kg/injection, schedule: Q01DX009 (ip), vehicle: saline 97 % of control | [1] 96 % of control | endpoint: mean survival time, dose: 200.0 mg/kg/injection, schedule: Q01DX009 (ip), vehicle: saline 101 % of control | [2] 93 % of control | endpoint: mean survival time, dose: 400.0 mg/kg/injection, schedule: Q01DX009 (ip), vehicle: saline 97 % of control | [3] 96 % of control

Cc1c(Cl)cc(Cl)c(N)c1Cl
inactive: [7] 93 % of control | [14] 97 % of control | [15] 97 % of control

CNC(=O)n1c(N)nc(-c2ccccc2)c1-c1ccccc1
inactive: endpoint: median survival time, dose: 6.25 mg/kg/injection, schedule: Q01DX009 (ip), vehicle: saline with Tween-80 101 % of control | endpoint: median survival time, dose: 12.5 mg/kg/injection, schedule: Q01DX009 (ip), vehicle: saline with Tween-80 103 % of control | endpoint: median survival time, dose: 25.0 mg/kg/injection, schedule: Q01DX009 (ip), vehicle: saline with Tween-80 114 % of control | endpoint: median survival time, dose: 50.0 mg/kg/injection, schedule: Q01DX009 (ip), vehicle: saline with Tween-80 119 % of control | endpoint: median survival time, dose: 100.0 mg/kg/injection, schedule: Q01DX009 (ip), vehicle: saline with Tween-80 98 % of control

Cc1ccc(C2=C(c3ccc(C)cc3)CS(=O)(=O)C2)cc1
inactive: [11] 92 % of control | [12] 93 % of control | [13] 92 % of control | endpoint: mean survival time, dose: 800.0 mg/kg/injection, schedule: Q01DX001 (ip), vehicle: saline with Tween-80 92 % of control

CN(C)S(=O)(=O)c1ccccc1C(O)(c1ccccc1)c1ccccc1
inactive: [7] 103 % of control | [8] 104 % of control | [14] 94 % of control | [9] 101 % of control | [15] 101 % of control | [10] 98 % of control

C1CCC(NC2=NCCO2)CC1
inactive: [8] 90 % of control
